Experimental data as given in patent US20230152317A1, “DIAGNOSIS AND TREATMENT OF COVID-19” (priority 2020, published 2023).

What was measured:
[1] = system: human pulmonary microvascular endothelial cells (hPMVEC); assay: Basal intracellular nitric oxide production in hPMVEC (DAF-FM fluorescence) after hyaluronidase treatment
Procedure: Isolation and culture of human pulmonary microvascular endothelial cells (hPMVEC): hPMVEC were isolated from resected human lung as previously described (35, 36). Briefly, human peripheral lung tissue was finely minced, and digested in 0.3% type II collagenase at 37° C. The digested suspension was filtered, centrifuged, and washed in PBS. Endothelial cells were then isolated using magnetic Dynabeads coated with anti-human CD31 antibody. Isolated cells were resuspended in EGM-2 (Lonza #CC-3162) with 10% fetal bovine serum and placed at 37° C. in 5% CO2 until 50% confluent, then harvested and re-purified using anti-CD31-coated magnetic microbeads as above. PMVEC were propagated in EGM-2+10% FBS and 20 mM HEPES on fibronectin-coated flasks and passages 4-9 used.
Hyaluronidase treatment of hPMVEC: PMVEC (2.5×10^4/well) were plated on fibronectin-coated 4-well plates in EGM-2+10% FBS and 20 mM HEPES. After 2 days, media was changed to HBSS (+100 mM HEPES, no bicarb)+0.01% BSA and hPMVEC were treated for 1 h with hyaluronidase (0.5 mg/mL; Sigma #H3506). Following treatment, hPMVEC were loaded with a nitric oxide-sensitive fluorochrome (2 μM DAF-FM DA (Thermo Fisher #D23844) for 1h before lysing with 0.5% SDS in PBS. After centrifugation for 10 min at 1×10^4RCF, the fluorescence of triplicate aliquots of supernatant were measured using a Victor3 multilabel fluorescence microplate reader (Wallac Oy; Perkin Elmer, Inc.) at 485/520 for DAF-FM. The nitric oxide donor DETA NONOate (20 μM; Cayman #82120) was used as the positive control.

COVID-19 patients = details: anticoagulant treatment, reference 49; cited from earlier work

For `NCCN(CCN)/[N+]([O-])=N/O` [DETA NONOate], the “increase of nitric oxide production” value ([1]; positive control at 20 μM, compared to untreated controls (data not shown)) was 16%.

With Hyaluronidase the “decrease of basal intracellular nitric oxide production” value ([1]; hyaluronidase 0.5 mg/mL for 1 h, compared to untreated PMVEC, n=5 separate experiments, P=0.008) was 98% and the “basal intracellular nitric oxide production after treatment (DAF-FM fluorescence)” value ([1]; hyaluronidase 0.5 mg/mL for 1 h, n=5 separate experiments) was 64±87.5 RFUs.

For low molecular weight heparin, the overall survival advantage (COVID-19 patients) is listed as “did not confer an overall survival advantage”.
